# What was measured:
# [1] = test system: rhythmic bladder contractions induced by substance P; test: Inhibitory effect on the rhythmic bladder contractions induced by substance P in anesthetized rats; assay type: in vivo, rat; settings: time during which frequency of rhythmic contraction was completely inhibited, 0.25 mg/kg of the compound, substance P infusion
# In short: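 Value is duration (min) of complete inhibition of bladder contractions, ranked A/B/C at 20 and 10 min cut-offs. Intravenous dosing (0.5% Tween 80 saline) in female SD rats under urethane, bladder saline-filled and contractions maintained by substance P infusion, 0.33 μg/kg/min.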
# [2] = test system: isolated rabbit urinary bladder; test: Relaxation effect on potassium-induced contraction of isolated rabbit urinary bladder; assay type: cell-based; settings: Oryctolagus cuniculus; 50% relaxation concentration; high-K+ (30 mM) pre-contracted rabbit bladder strips; relaxation as percentage of the maximum produced by 0.1 mM papaverine; read-out: EC50 value range
# Procedure: Relaxation effect on potassium-induced contraction of isolated rabbit urinary bladder
# Urinary bladder was isolated from Male NZW rabbits (2.0-3.5 kg) and immersed in ice-cold Krebs-bicarbonate solution (in mM: 118 NaCl, 4.7 KCl, 1.2, 2.5 CaCl2, MgSO4, 1.2 KH2PO4, 11 glucose, 25 NaHCO3). The urinary bladder was cut into longitudinal strips (5 mm length, 3-4 mm width) after mucosal layer was removed. Preparations were mounted in organ baths containing 10 ml of Krebs solution maintained at 37° C. and gassed with 95% O2/5% CO2. Accordingly, preparations were stretched with an initial tension of 2.0±1.0 g, and changes in isometric tension were measured by force-displacement transducer. The preparations were pre-contracted by changing organ-bath solution into high-K^+ (30 mM) Krebs solution (in mM: 92.7 NaCl, 30 KCl, 1.2, 2.5 CaCl2, MgSO4, 1.2 KH2PO4, 11 glucose, 25 NaHCO3).
# After stable tension was obtained, compounds were added into organ baths cumulatively (10^−8M-10^−4M). The effects of compounds were expressed as a percentage of the maximum relaxation produced by 0.1 mM papaverine. 50% relaxation concentration (EC50) was calculated and EC50 value range (μM) of the compounds of the present invention was shown in the following Table 64 with a rank of A, B or C. These ranges are as mentioned below. 3≧C≧1≧B≧0.5≧A
SMILES,100% inhibition time range [1],EC50 [2] [nM]
Cc1cc(-c2nc(CC(=O)O)c(-c3ccc(Cl)s3)s2)sc1C [Preparation Example 612],A (A≧20>B≧10>C (minute)),≤ 500
O=C(O)Cc1sc(-c2ccc(F)cc2)nc1-c1ccc(Cl)c(F)c1 [Preparation Example 584],A (A≧20>B≧10>C (minute)),1000 to 3000
CSc1ccc(-c2nc(CC(=O)O)c(-c3ccc(Cl)cc3)o2)cc1 [Preparation Example 455],B (A≧20>B≧10>C (minute)),1000 to 3000
O=C(O)Cc1nc(-c2ccc3occc3c2)oc1-c1ccc(Cl)s1 [Preparation Example 272],B (A≧20>B≧10>C (minute)),≤ 500
O=C(O)Cc1oc(-c2ccc(F)cc2)nc1-c1ccc(Cl)cc1 [Preparation Example 511],C (A≧20>B≧10>C (minute)),≤ 500
CCc1nc(-c2ccc(Cl)cc2)[nH]c1-c1cccnc1 [Preparation example 56],B (A≧20>B≧10>C (minute)),500 to 1000
Cc1nc(-c2csc(Cl)c2)[nH]c1-c1cccnc1 [Preparation example 54],B (A≧20>B≧10>C (minute)),1000 to 3000
CCc1nc(-c2ccc(Cl)s2)[nH]c1-c1cccnc1 [Preparation example 14],A (A≧20>B≧10>C (minute)),1000 to 3000
CN(C)c1ccc(-c2nc(-c3ccsc3)c(CC(=O)O)s2)cn1 [Preparation Example 596],B (A≧20>B≧10>C (minute)),1000 to 3000
CCc1nc(-c2csc(Cl)c2)[nH]c1-c1cccnc1 [Preparation example 55],B (A≧20>B≧10>C (minute)),1000 to 3000
O=C(O)Cc1nc(-c2ccc(Cl)cc2)oc1-c1ccc(Cl)s1 [Preparation Example 275],A (A≧20>B≧10>C (minute)),≤ 500
CCN(C)c1ncc(-c2nc(CC(=O)O)c(-c3ccc(Cl)s3)o2)cn1 [Preparation Example 363],C (A≧20>B≧10>C (minute)),1000 to 3000
COc1ccc(-c2nc(CC(=O)O)c(-c3ccc(F)c(F)c3)o2)cc1 [Preparation Example 246],B (A≧20>B≧10>C (minute)),500 to 1000
CCCc1nc(-c2ccc(F)cc2)[nH]c1-c1ccc(F)cc1 [Preparation example 87],B (A≧20>B≧10>C (minute)),1000 to 3000
CSc1ncc(-c2nc(CC(=O)O)c(-c3ccc(Cl)c(F)c3)o2)cn1 [Preparation Example 462],C (A≧20>B≧10>C (minute)),500 to 1000
C[S+]([O-])Cc1nc(-c2cccc(F)c2)[nH]c1-c1ccccc1 (centres unmarked) [Preparation example 136],C (A≧20>B≧10>C (minute)),500 to 1000
O=C(O)Cc1oc(-c2cc3ccccc3s2)nc1-c1ccc(Cl)s1 [Preparation Example 503],A (A≧20>B≧10>C (minute)),1000 to 3000
CN(c1ccc(-c2nc(CC(=O)O)c(-c3ccc(Cl)s3)o2)cn1)C1CC1 [Preparation Example 531],C (A≧20>B≧10>C (minute)),1000 to 3000
O=C(O)Cc1nc(-c2ccc(F)cc2)oc1-c1cccc(F)c1F [Preparation Example 252],C (A≧20>B≧10>C (minute)),500 to 1000
CCc1nc(-c2ccc(F)cc2)[nH]c1-c1cncs1 [Preparation example 86],B (A≧20>B≧10>C (minute)),500 to 1000

SMILES,100% inhibition time range [1],EC50 [2] [nM]
O=C(O)Cc1sc(-c2ccc(F)cc2)nc1-c1ccsc1 [Preparation Example 594],C (A≧20>B≧10>C (minute)),≤ 500
O=C(O)Cc1nc(-c2ccc(F)cc2)oc1-c1csc(Cl)c1 [Preparation Example 286],C (A≧20>B≧10>C (minute)),≤ 500
COc1ccc(-c2nc(CC(=O)O)c(-c3ccc(Cl)s3)s2)cc1 [Preparation Example 609],B (A≧20>B≧10>C (minute)),500 to 1000
O=C(O)Cc1nc(-c2cc3ccccc3s2)sc1-c1ccc(Cl)s1 [Preparation Example 610],B (A≧20>B≧10>C (minute)),≤ 500
O=C(O)Cc1nc(-c2ccc(F)cc2)oc1-c1ccc(F)cc1 [Preparation Example 235],B (A≧20>B≧10>C (minute)),500 to 1000
CN(C)c1ncc(-c2nc(-c3ccc(Cl)cc3)c(CC(=O)O)s2)cn1 [Preparation Example 601],A (A≧20>B≧10>C (minute)),500 to 1000
COc1ccc(-c2nc(CC(=O)O)c(-c3cccs3)o2)cc1F [Preparation Example 431],B (A≧20>B≧10>C (minute)),500 to 1000
O=C(O)Cc1nc(-c2ccc(F)cc2)oc1-c1ccc(Br)s1 [Preparation Example 256],C (A≧20>B≧10>C (minute)),≤ 500
"CSc1ccc(-c2nc(CC(=O)[O-])c(-c3ccsc3)o2)cn1.[Na+] [Preparation Example 365, 2-(6-methylthiopyridin-3-yl)-5-(3-thienyl)oxazol-4-yl acetic acid sodium salt]",B (A≧20>B≧10>C (minute)),1000 to 3000
O=C(O)Cc1nc(-c2ccc(Cl)cc2)oc1-c1ccc(Br)s1 [Preparation Example 245],C (A≧20>B≧10>C (minute)),1000 to 3000
FCCc1nc(-c2ccc(F)cc2)[nH]c1-c1ccccc1 [Preparation Example 182],B (A≧20>B≧10>C (minute)),≤ 500
"CN(C)c1[nH]c(-c2ccc(F)cc2)nc1-c1ccccc1.Cl [Preparation example 108, 5-dimethylamino-2-(4-fluorophenyl)-4-phenylimidazole hydrochloride]",B (A≧20>B≧10>C (minute)),1000 to 3000
CN(C)c1ccc(-c2nc(-c3ccc(Cl)cc3)c(CC(=O)O)o2)cn1 [Preparation Example 514],B (A≧20>B≧10>C (minute)),500 to 1000
CC(C)c1ccc(-c2oc(-c3ccc(F)cc3)nc2CC(=O)O)cc1 [Preparation Example 248],B (A≧20>B≧10>C (minute)),1000 to 3000
Cc1ccc(-c2nc(CC(=O)O)c(-c3ccc(Cl)s3)o2)cn1 [Preparation Example 452],B (A≧20>B≧10>C (minute)),≤ 500
Clc1ccc(-c2ncc(-c3cccnc3)[nH]2)s1 [Preparation example 25],B (A≧20>B≧10>C (minute)),≤ 500
CCc1nc(-c2ccc(C#N)cc2)[nH]c1-c1cccnc1 [Preparation example 53],C (A≧20>B≧10>C (minute)),500 to 1000
Cn1c(-c2oc(-c3ccc(F)cc3)nc2CC(=O)O)cc2ccccc21 [Preparation Example 249],B (A≧20>B≧10>C (minute)),1000 to 3000
COc1ccc(-c2nc(CC(=O)O)c(-c3ccccc3F)o2)cc1 [Preparation Example 247],C (A≧20>B≧10>C (minute)),1000 to 3000
Cc1ccc(-c2nc(CC(=O)O)c(-c3ccc(Cl)s3)o2)s1 [Preparation Example 458],B (A≧20>B≧10>C (minute)),≤ 500

# From patent publication US7759373B2, “Large conductance calcium-activated K channel opener” (Mitsubishi Tanabe Pharma Corporation, priority 2001, dated 2010)
